For orientation: Cmax means the maximum level reached in the sampled fluid or tissue. As usually defined, the Tmax is the time at which the peak concentration occurs. One may read the bioavailability as the share of a dose that reaches the circulation, judged against a reference dose that is usually intravenous.

A short description of data set [1]: Pharmacokinetic evaluation following intravenous and oral administration in rats. Type of data set: in vivo. The following applies: male, Sprague-Dawley; for Cmax / Tmax / bioavailability: 5 mg/kg; for Cmax: rat plasma; for Cmax / Tmax: oral gavage, 2 mg/mL at 2.5 mL/kg; for clearance / Vd / Tmax / bioavailability / half-life: plasma, rat; for clearance / Vd / half-life: 1 mg/kg; for clearance / Vd: intravenous administration, 1 mg/mL at 1.0 mL/kg; for clearance: read-out: CI (clearance) (converted); for Vd: read-out: Vd (volume of distribution); for bioavailability: po 2 mg/mL at 2.5 mL/kg vs iv 1 mg/mL at 1.0 mL/kg, dose-normalized, read-out: F (%) oral bioavailability; for half-life: intravenous, read-out: T1/2 elimination half life (converted). The method, boiled down:
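Male Sprague-Dawley rats, fasted, dosed iv (1 mg/mL formulation, 1.0 mL/kg, jugular or tail vein) or by oral gavage (2 mg/mL suspension, 2.5 mL/kg). Plasma sampled from 2 min to 480 min, some to 24 h, and quantified by LC-MS/MS (MRM). Parameters from noncompartmental analysis.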

Data set [2] can be described thus: Plasma protein binding (equilibrium dialysis), human plasma. Type of data set: in vitro ADME. Conditions: 1 μg/mL in plasma, dialysis vs phosphate buffer pH 7.4 overnight at 37° C., read-out: Plasma Protein Binding % Bound Human (converted). The procedure: Nitrone compounds of this invention were individually dissolved in DMSO to make a stock solution of 1 mg/mL. The compound was spiked into plasma to achieve a final concentration of 1 μg/mL. Spiked plasma and phosphate buffer (0.1M, pH 7.4), 200 μl each, were added to the opposite sides of the membrane in a 96-well equilibrium dialyzer. The dialyzer plate was then covered and equilibrated overnight at 37° C. on an orbital shaker. Aliquots were taken from the plasma and the buffer compartments and prepared by adding blank plasma to samples from the buffer compartments and drug-free phosphate buffer to samples from the plasma compartments to eliminate the matrix effects. The samples were extracted using protein precipitation procedure by adding CH3CN. The samples were analyzed using a LC/MS/MS method. The percentage of free and bound nitrone compound were calculated according to the following formula:
%Free=[Free Drug/Total Drug]*100=[(Peak Area)buffer/(Peak Area)serum]*100%Bound=100%Free
(In general: In equilibrium dialysis free small molecules cross a membrane that holds back macromolecules.)

Regarding `CC(C)(C)/[N+]([O-])=C/c1ccc(S(N)(=O)=O)cc1` [Compound 20, N-(tert-Butyl)-C-[4-(sulfamoyl)phenyl]nitrone], in data set [1], the maximum concentration (Cmax) stood at 796 ng/mL, the clearance was 12.8 mL/min/kg, the Vd came out at 4.08 L/kg and the Tmax was 22.2 min. For the same compound, in data set [1], the bioavailability is 55.4% and the half-life is 220 min. The fraction unbound at 1 μg/mL in data set [2] was 1.
Regarding `CC(C)(C)/[N+]([O-])=C/c1ccc(S(=O)(=O)N2CCOCC2)cc1` [Compound 23, N-(tert-Butyl)-C-[4-(morpholine-4-sulfonyl)phenyl]nitrone], in data set [1], the Cmax is 1120 ng/mL, the clearance was 28 mL/min/kg, the Vd was determined as 3.78 L/kg and the time of peak concentration (Tmax) turned out to be 25.2 min. Moreover, in data set [1], the bioavailability worked out at 65.3% and the half-life was 94.8 min. The fraction unbound at 1 μg/mL in data set [2] is 0.8.
For `CC(C)(C)/[N+]([O-])=C/c1ccc(S(=O)(=O)Nc2cccnc2)cc1` [Compound 26, N-(tert-Butyl)-C-[4-(pyridin-3-ylsulfamoyl)phenyl]nitrone], in data set [1], the Cmax worked out at 27300 ng/mL, the clearance is 0.167 mL/min/kg, the Vd was determined as 0.09 L/kg and the time of peak concentration (Tmax) worked out at 25.2 min. For the same compound, in data set [1], the bioavailability was determined as 43.4% and the half-life was 262 min. Besides, the fraction unbound at 1 μg/mL in data set [2] is 0.238.
As to `CC(C)(C)/[N+]([O-])=C/c1ccc(S(C)(=O)=O)cc1` [Compound 62, N-tert-Butyl-C-[4-(methanesulfonyl)phenyl]nitrone], in data set [1], the Cmax is 4630 ng/mL, the clearance is 1 mL/min/kg, the Vd came out at 0.53 L/kg and the Tmax is 24.6 min. Further, in data set [1], the bioavailability amounted to 63.4% and the half-life is 349 min. Also, the fraction unbound at 1 μg/mL in data set [2] was 0.826.
For `CC(C)(C)/[N+]([O-])=C/c1ccc(S(C)(=O)=O)cc1S(C)(=O)=O` [Compound 63, N-tert-Butyl-C-(2,4-bis-methanesulfonylphenyl)nitrone], in data set [1], the Cmax was 4130 ng/mL, the clearance is 3.17 mL/min/kg, the Vd is 0.45 L/kg and the Tmax is 45 min. In addition, in data set [1], the bioavailability came to 95.9% and the half-life is 99.6 min. In addition, in data set [2], the fraction unbound at 1 μg/mL was 0.867.
Consider `CCS(=O)(=O)c1ccc(/C=[N+](\[O-])C(C)(C)C)c(S(=O)(=O)CC)c1` [Compound 64, N-tert-Butyl-C-(2,4-bis-ethanesulfonylphenyl)nitrone], for which, in data set [1], the peak level (Cmax) was 2490 ng/mL, the clearance is 13.8 mL/min/kg, the Vd is 0.67 L/kg and the Tmax came to 39.6 min. Also, in data set [1], the bioavailability was 91.3% and the half-life is 33 min. Moreover, in data set [2], the fraction unbound at 1 μg/mL is 0.697.
As to `CC(C)(C)/[N+]([O-])=C/c1ccccc1S(C)(=O)=O` [Compound 66, N-tert-Butyl-C-(2-methanesulfonylphenyl)nitrone], in data set [1], the Cmax came out at 4730 ng/mL, the clearance was 3 mL/min/kg, the Vd amounted to 0.63 L/kg and the Tmax turned out to be 60 min. In addition, in data set [1], the bioavailability was 70.3% and the half-life is 143 min. The fraction unbound at 1 μg/mL in data set [2] is 0.726.

The values are drawn from patent publication US20100168112A1, “2-Substituted and 4-substituted aryl nitrone compounds” (RENOVIS, INC., priority 2004, published 2010).
